The record followed here is US20170152263A1, “Substituted Indazole Compounds as IRAK4 Inhibitors” (AURIGENE DISCOVERY TECHNOLOGIES LIMITED, priority 2014, published 2017).

Structures can show the parent of a compound that is named as a salt.

This assay addresses T1, recombinant IRAK-4 kinase (Homo sapiens, UniProt Q9NWZ3).
T1 construct: purchased Millipore, USA
T1 sequence (Q9NWZ3 1-460): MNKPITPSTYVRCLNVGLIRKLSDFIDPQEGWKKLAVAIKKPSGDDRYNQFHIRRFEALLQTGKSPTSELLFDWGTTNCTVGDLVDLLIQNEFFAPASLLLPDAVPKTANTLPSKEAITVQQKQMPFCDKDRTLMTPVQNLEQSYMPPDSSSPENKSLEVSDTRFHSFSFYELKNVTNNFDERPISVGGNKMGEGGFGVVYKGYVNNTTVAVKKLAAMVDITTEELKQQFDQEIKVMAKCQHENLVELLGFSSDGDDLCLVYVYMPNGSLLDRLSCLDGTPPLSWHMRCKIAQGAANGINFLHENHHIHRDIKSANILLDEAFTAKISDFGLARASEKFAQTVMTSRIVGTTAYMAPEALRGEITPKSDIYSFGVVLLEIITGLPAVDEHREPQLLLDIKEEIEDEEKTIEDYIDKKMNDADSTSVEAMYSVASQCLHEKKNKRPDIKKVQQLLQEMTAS
Put plainly: IRAK-4 biochemical assay (TR-FRET). To be noted: IRAK-4 enzyme, 20 μM ATP; for inhibition at 1 µM: compound at 1 μM; for IC50: dose response; for inhibition at 0.1 µM: compound at 0.1 μM. The protocol:
Compounds were tested for their potential to inhibit IRAK-4 enzyme in a TR-FRET assay using recombinant IRAK-4 kinase from Millipore, USA. The assay buffer was 50 mM Tris-HCl pH 7.5, 20 mM MgCl2, 1 mM EGTA, 2 mM DTT, 3 mM MnCl2 and 0.01% Tween 20.5 ng of IRAK-4 kinase was used for the assay. After pre-incubation of enzyme with test compound for 30 minutes at room temperature, a substrate mixture containing 100 nM Biotin Histone H3 (Millipore, USA) and 20 μM ATP (Sigma, USA) was added and the reaction was incubated for 30 min. Post incubation, the reaction was stopped by the addition of stop mix containing 40 mM EDTA, 1 nM of Europium-Anti-Phospho-Histone H3 (Ser10) antibody (Perkin Elmer, USA) and 20 nM SureLight Allophycocyanin-Streptavidin (Perkin Elmer, USA). The fluorescence emission at 615 nm and 665 nm were measured at an excitation of 340 nm and the percent inhibition was estimated from the ratio of the fluorescence intensities [(F665/F615)×10000]. […] The IC50 values were estimated by fitting the dose-response data to sigmoidal dose response (variable slope), curve fitting program using Graphpad Prism software Version 6.01.
In general terms: In TR-FRET formats the signal depends on donor and acceptor labels being close together.

Take `Cn1ncc2cc(N3CCCCC3)c(NC(=O)c3coc(N4CC[C@H](N)C4)n3)cc21` [Example 4, (S)-2-(3-aminopyrrolidin-1-yl)—N—(1-methyl-5-(piperidin-1-yl)-1H-indazol-6-yl)oxazole-4-carboxamide]: the inhibition at 1 µM worked out at 84% and the IC50 is 100 to 250 nM.

For `Cn1ncc2cc(N3CC[C@H](O)C3)c(NC(=O)c3coc(C4CCNCC4)n3)cc21` [Example 37, (S)—N—(5-(3-hydroxypyrrolidin-1-yl)-1-methyl-1H-indazol-6-yl)-2-(piperidin-4-yl)oxazole-4-carboxamide hydrochloride], the inhibition at 0.1 µM came to 0% and the inhibition at 1 µM was 0%.

As to `Cn1cc2cc(N3CCCCC3)c(NC(=O)c3cccc(N4CC[C@H](O)C4)n3)cc2n1` [Example 3, (S)-6-(3-hydroxypyrrolidin-1-yl)—N—(2-methyl-5-(piperidin-1-yl)-2H-indazol-6-yl)picolinamide], the inhibition at 0.1 µM was 90%, the inhibition at 1 µM was determined as 73% and the IC50 is over 250 nM.

With `Cc1cc(-c2nc(C(=O)Nc3cc4c(cnn4CC4CCNCC4)cc3N3CC[C@H](O)C3)co2)ccn1` [Example 44, (S)—N—(5-(3-hydroxypyrrolidin-1-yl)-1-(piperidin-4-ylmethyl)-1H-indazol-6-yl)-2-(2-methylpyridin-4-yl)oxazole-4-carboxamide hydrochloride], the inhibition at 0.1 µM turned out to be 0% and the inhibition at 1 µM came to 54%.

`Cc1cc(-c2nc(C(=O)Nc3cc4c(cnn4C)cc3N3CC[C@H](O)C3)co2)ccn1` [Example 11, (S)—N—(5-(3-hydroxypyrrolidin-1-yl)-1-methyl-1H-indazol-6-yl)-2-(2-methylpyridin-4-yl)oxazole-4-carboxamide hydrochloride]: the inhibition at 0.1 µM came to 95%, the inhibition at 1 µM was 98% and the IC50 is under 100 nM.

As to `Cn1ncc2cc(N3CC[C@H](O)C3)c(NC(=O)c3coc(-c4ccnc(N)c4F)n3)cc21` [Example 28, (S)-2-(2-amino-3-fluoropyridin-4-yl)—N—(5-(3-hydroxypyrrolidin-1-yl)-1-methyl-1H-indazol-6-yl)oxazole-4-carboxamide], the inhibition at 0.1 µM was determined as 96%, the inhibition at 1 µM was determined as 98% and the IC50 is under 100 nM.

Consider `Cc1cc(-c2nc(C(=O)Nc3cc4c(cnn4C4CC4)cc3N3CC[C@H](O)C3)co2)ccn1` [Example 33, (S)—N—(1-cyclopropyl-5-(3-hydroxypyrrolidin-1-yl)-1H-indazol-6-yl)-2-(2-methylpyridin-4-yl)oxazole-4-carboxamide hydrochloride], for which the inhibition at 0.1 µM was 25%, the inhibition at 1 µM amounted to 87% and the IC50 lay in the range of 100 to 250 nM.

`Cc1cc(-c2nc(C(=O)Nc3cc4c(cnn4C)cc3N3CCC(CO)CC3)co2)ccn1` [Example 20, N-(5-(4-(hydroxymethyl)piperidin-1-yl)-1-methyl-1H-indazol-6-yl)-2-(2-methylpyridin-4-yl)oxazole-4-carboxamide]: the inhibition at 0.1 µM was 96%, the inhibition at 1 µM is 97% and the IC50 was under 100 nM.

With `Cn1ncc2cc(N3CC[C@H](O)C3)c(NC(=O)c3coc(N4CCNCC4)n3)cc21` [Example 31, (S)—N—(5-(3-hydroxypyrrolidin-1-yl)-1-methyl-1H-indazol-6-yl)-2-(piperazin-1-yl)oxazole-4-carboxamide hydrochloride], the inhibition at 0.1 µM was 0% and the inhibition at 1 µM was determined as 37%.

Turning to `Cn1cc2cc(N3CCCCC3)c(NC(=O)c3coc(N4CC[C@H](O)C4)n3)cc2n1` [Example 6, (S)-2-(3-hydroxypyrrolidin-1-yl)—N—(2-methyl-5-(piperidin-1-yl)-2H-indazol-6-yl)oxazole-4-carboxamide], the inhibition at 0.1 µM is 96%, the inhibition at 1 µM is 90% and the IC50 fell in the range of 100 to 250 nM.

Broadly, the inhibition is the change of the read-out against control, counted positive when it falls. One may read the IC50 as the concentration that gives 50% inhibition.
